The values below come from patent publication US20090022772A1, “BIOABSORBABLE ELASTOMERIC ARTERIAL SUPPORT DEVICE AND METHODS OF USE” (MediVas, LLC, priority 2007, published 2009).

This data set can be described thus: Properties and self-adherence of PEA 4-Phe-4/EAC-2 mixture films, dry and after soaking in water. More on the design: key to Self-adherence: (—) means: no self-adherence observed. The note with it: for Self-adherence: folded film in water 24 hours. Type of data set: physicochemical. The text has this:
At the first stage, this Example addresses the question of whether invention cross-linking agents can be used as plasticizers without causing the composition to undesirably adhere to the surface of other materials (for example, steel, and other medical device surfaces).

For `C=C(C)C(=O)NC(Cc1ccccc1)C(=O)OCCCCCCOC(=O)C(Cc1ccccc1)NC(=O)C(=C)C` [Phe-6-MA, dimethacrylate of bis(L-Phe)-1,6-hexanediol diester], the Self-adherence entry is listed as “—” (PEA 4-Phe-4/EAC-2 40/60 w/w), “—” (PEA 4-Phe-4/EAC-2 60/40 w/w) and “—” (PEA 4-Phe-4/EAC-2 80/20 w/w). The “Film properties, Dry” value is “Hard” (PEA 4-Phe-4/EAC-2 60/40 w/w) and “Hard” (PEA 4-Phe-4/EAC-2 80/20 w/w). In addition, the “Film properties, Wet” value (PEA 4-Phe-4/EAC-2 60/40 w/w, pre-soaked in water at room temperature for 24 hours) was “Elastic”.
